What was measured:
Assay type in all cases: functional
Mus musculus [1] = assay: Inhibition of acute experimental autoimmune encephalomyelitis in SJL/N mice by 5 mg/kg/day p.o.; conditions: route oral
Mus musculus [2] = assay: Inhibition of acute experimental autoimmune encephalomyelitis (aEAE) induced in SJL/N mice at a dose of 1 mg/kg/day, (po)
Mus musculus [3] = assay: Inhibition of acute experimental autoimmune encephalomyelitis in SJL/N mice by 5 mg/kg/day p.o./s.c.; conditions: route oral
Mus musculus [4] = assay: Inhibition of acute experimental autoimmune encephalomyelitis in SJL/N mice by 0.2 mg/kg/day p.o./s.c.; conditions: po
Mus musculus [5] = assay: Inhibition of acute experimental autoimmune encephalomyelitis in SJL/N mice by 1 mg/kg/day p.o./s.c.; conditions: route oral
Mus musculus [6] = assay: Inhibition of acute experimental autoimmune encephalomyelitis in SJL/N mice by 0.2 mg/kg/day p.o.; conditions: route oral
Mus musculus [7] = assay: Inhibition of acute experimental autoimmune encephalomyelitis (aEAE) induced in SJL/N mice at a dose of 5 mg/kg/day, (sc) was determined; Inactive
Mus musculus [8] = assay: Inhibition of acute experimental autoimmune encephalomyelitis (aEAE) induced in SJL/N mice at a dose of 0.2 mg/kg/day, (po) was determined; Inactive

Row | Compound | inhibition in vivo at 5 mg/kg/day (Mus musculus [1]) | inhibition in vivo at 1 mg/kg/day (Mus musculus [2]) | inhibition in vivo at 5 mg/kg/day (Mus musculus [3]) | inhibition in vivo at 0.2 mg/kg/day (Mus musculus [4]) | inhibition in vivo at 1 mg/kg/day (Mus musculus [5]) | inhibition in vivo at 0.2 mg/kg/day (Mus musculus [6]) | also measured
1 | C=CCN(C(=O)c1c(O)c2c(Cl)cccc2n(C)c1=O)c1ccccc1 | 81% | 59% |  |  |  |  | 
2 | COc1cccc(N(C)C(=O)c2c(O)c3c(OC)cccc3n(C)c2=O)c1 |  |  | 85% | 35% | 90% |  | 
3 | CCN(C(=O)c1c(O)c2c(OC)cccc2n(C)c1=O)c1ccccc1 |  |  | 86% | 69% | 73% |  | 
4 | CN(C(=O)c1c(O)c2c([N+](=O)[O-])cccc2n(C)c1=O)c1ccccc1 | 100% | 96% |  |  |  | 46% | 
5 | COc1ccc2nc(O)c(C(=O)N(C)c3ccc(F)cc3)c(O)c2c1 |  |  |  |  |  |  | inhibition in vivo at 5 mg/kg/day (Mus musculus [7]): < 35%
6 | COc1cccc2c1c(O)c(C(=O)N(C)c1ccc(C(C)(C)C)cc1)c(=O)n2C | 98% | 84% |  |  |  | 60% | 
7 | COc1cccc2c1c(O)c(C(=O)N(C)c1c(F)cccc1F)c(=O)n2C |  | 43% |  |  |  | 28% | 
8 | COc1cccc2c1c(O)c(C(=O)N(C)c1ccc(F)cc1)c(=O)n2C |  |  | 93% | 92% |  |  | 
9 | COc1cccc2c1c(O)c(C(=O)N(C)c1cccc(C(C)(C)C)c1)c(=O)n2C | 84% | 60% |  |  |  | 38% | 
10 | COc1cccc2c1c(O)c(C(=O)N(C)c1ccc(F)cc1F)c(=O)n2C |  | 88% |  |  |  | 76% | 
11 | COc1cccc2c1c(O)c(C(=O)N(C)c1cc(F)ccc1F)c(=O)n2C | 95% | 90% |  |  |  | 62% | 
12 | CN(C(=O)c1c(O)c2cccc(C(F)(F)F)c2n(C)c1=O)c1ccc(Cl)cc1Cl |  |  |  |  |  |  | inhibition in vivo at 5 mg/kg/day (Mus musculus [7]): < 35%
13 | Cc1cccc2c1c(O)c(C(=O)N(C)c1ccccc1)c(=O)n2C |  |  | 97% | 95% | 100% |  | 
14 | CN(C(=O)c1c(O)c2cc(OC(F)(F)F)ccc2n(C)c1=O)c1ccccc1 |  |  | 96% | 63% | 72% |  | 
15 | Cc1ccc2c(c1)c(O)c(C(=O)N(C)c1ccccc1)c(=O)n2C |  |  | 100% | 62% | 79% |  | 
16 | CN(C(=O)c1c(O)c2c(Cl)cccc2n(C)c1=O)c1ccccc1 |  |  | 100% | 91% | 99% |  | 
17 | COc1cccc2c1c(O)c(C(=O)N(C)c1ccccc1)c(=O)n2C |  |  | 96% | 79% | 95% |  | 
18 | CN(C(=O)c1c(O)c2ccc(Oc3ccccc3)cc2n(C)c1=O)c1ccc(F)cc1 |  |  |  |  |  |  | inhibition in vivo at 5 mg/kg/day (Mus musculus [7]): < 35%
19 | COc1cccc2c1c(O)c(C(=O)N(C)c1ccccc1Cl)c(=O)n2C | 68% | 50% |  |  |  |  | inhibition in vivo at 0.2 mg/kg/day (Mus musculus [8]): < 35%
20 | COc1ccc(N(C)C(=O)c2c(O)c3c(OC)cccc3n(C)c2=O)cc1 |  | 84% |  |  |  | 78% | 
21 | COc1cccc2c1c(O)c(C(=O)N(C)c1cccc(Oc3ccccc3)c1)c(=O)n2C |  |  | 90% | 47% | 63% |  | 
22 | CCc1cccc2c1c(O)c(C(=O)N(CC)c1ccccc1)c(=O)n2C [PAQUINIMOD] |  | 100% |  |  |  | 81% | 
23 | CN(C(=O)c1c(O)c2cc(F)ccc2n(C)c1=O)c1ccc(F)cc1 |  |  | 93% |  | 77% |  | 

Row | Compound | inhibition in vivo at 5 mg/kg/day (Mus musculus [1]) | inhibition in vivo at 1 mg/kg/day (Mus musculus [2]) | inhibition in vivo at 5 mg/kg/day (Mus musculus [3]) | inhibition in vivo at 0.2 mg/kg/day (Mus musculus [4]) | inhibition in vivo at 1 mg/kg/day (Mus musculus [5]) | inhibition in vivo at 0.2 mg/kg/day (Mus musculus [6]) | also measured
24 | CCN(C(=O)c1c(O)c2c(Cl)cccc2n(C)c1=O)c1ccccc1 [LAQUINIMOD] |  |  | 96% | 66% | 92% |  | 
25 | CN(C(=O)c1c(O)c2cc(C(F)(F)F)ccc2n(C)c1=O)c1ccccc1 |  |  | 100% | 67% | 100% |  | 
26 | CCN(C(=O)c1c(O)c2cc(OC)ccc2n(C)c1=O)c1ccccc1 |  |  | 84% | 39% | 37% |  | 
27 | CN(C(=O)c1c(O)c2c(C(F)(F)F)cccc2n(C)c1=O)c1ccccc1 | 100% | 99% |  |  |  |  | 
28 | CCN(C(=O)c1c(O)c2c3c(ccc2n(C)c1=O)OCO3)c1ccccc1 | 99% | 75% |  |  |  | 58% | 
29 | CN(C)c1cccc2c1c(O)c(C(=O)N(C)c1ccccc1)c(=O)n2C | 100% | 93% |  |  |  | 58% | 
30 | CCN(C(=O)c1c(O)c2c(F)cccc2n(C)c1=O)c1ccccc1 |  | 60% |  |  |  |  | 
31 | COc1ccc2c(c1)c(O)c(C(=O)N(C)c1ccccc1)c(=O)n2C |  |  | 100% | 83% | 100% |  | 
32 | COc1cccc2c1c(O)c(C(=O)N(C)c1ccccc1F)c(=O)n2C | 100% | 82% |  |  |  | 94% | 
33 | CSc1cccc2c1c(O)c(C(=O)N(C)c1ccccc1)c(=O)n2C | 100% | 100% |  |  |  | 94% | 
34 | CCN(C(=O)c1c(O)c2c(Br)cccc2n(C)c1=O)c1ccccc1 |  | 95% |  |  |  | 57% | 
35 | CN(C(=O)c1c(O)c2ccccc2n(-c2ccccc2)c1=O)c1ccccc1 |  |  |  |  |  |  | inhibition in vivo at 5 mg/kg/day (Mus musculus [7]): < 35%
36 | CN(C(=O)c1c(O)c2ccc(Cl)cc2n(C)c1=O)c1ccccc1 |  |  |  |  |  |  | inhibition in vivo at 5 mg/kg/day (Mus musculus [7]): < 35%
37 | COc1cccc2c1c(O)c(C(=O)N(C)c1cccc(Cl)c1)c(=O)n2C | 71% | 85% |  |  |  | 54% | 
38 | COc1cccc2c(O)c(C(=O)N(C)c3ccccc3)c(=O)n(C)c12 |  |  |  |  |  |  | inhibition in vivo at 5 mg/kg/day (Mus musculus [7]): < 35%
39 | CN(C(=O)c1c(O)c2cc(Cl)ccc2n(C)c1=O)c1ccccc1 |  |  | 100% | 81% | 100% |  | 
40 | CCCN(C(=O)c1c(O)c2c(Cl)cccc2n(C)c1=O)c1ccccc1 | 100% | 94% |  |  |  | 49% | 
41 | COc1ccc2c(O)c(C(=O)N(C)c3ccccc3)c(=O)n(C)c2c1 |  |  |  |  |  |  | inhibition in vivo at 5 mg/kg/day (Mus musculus [7]): < 35%
42 | CCN(C(=O)c1c(O)c2c(SC)cccc2n(C)c1=O)c1ccccc1 | 99% | 73% |  |  |  | 51% | 
43 | CCOc1cccc2c1c(O)c(C(=O)N(C)c1ccccc1)c(=O)n2C | 76% | 40% |  |  |  | 44% | 
44 | COc1cccc2c1c(O)c(C(=O)N(C)c1ccc(Cl)cc1)c(=O)n2C |  |  | 89% | 77% | 70% |  | 
45 | CCN(C(=O)c1c(O)c2cc(C(F)(F)F)ccc2n(C)c1=O)c1ccccc1 |  | 57% |  |  |  |  | inhibition in vivo at 0.2 mg/kg/day (Mus musculus [8]): < 35%
46 | CCN(C(=O)c1c(O)c2c(C(F)(F)F)cccc2n(C)c1=O)c1ccccc1 |  | 80% |  |  |  | 49% | 
